Laboratory results from ChEMBL document CHEMBL1201862, “PubChem BioAssay data set” (2004).
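Briefly, cells in 96-well plates were exposed to five compound concentrations for 48 h, and endpoints were estimated by linear interpolation. GI50 is the concentration that inhibits growth by half.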 Active and inactive are the calls of the source. No stated cut-off is given here; in the data, active = GI50 up to about 1.1 µM and inactive = higher.

Columns and labels:
Assay in all cases: NCI tumour cell line growth inhibition, 48 h
SN12C = system: SN12C
HOP-92 = system: HOP-92
NCI-H460 = system: NCI-H460
SNB-19 = system: SNB-19
HCT-116 = system: HCT-116
IGROV-1 = system: IGROV-1
SNB-78 = system: SNB-78
UACC-257 = system: UACC-257
SK-MEL-28 = system: SK-MEL-28
OVCAR-8 = system: OVCAR-8
COLO 205 = system: COLO 205
HOP-62 = system: HOP-62
KM12 = system: KM12
CCRF-CEM = system: CCRF-CEM
LOX IMVI = system: LOX IMVI
Hs-578T = system: Hs-578T
MCF7 = system: MCF7
PC-3 = system: PC-3
A498 = system: A498
NCI/ADR-RES = system: NCI/ADR-RES

Measured: GI50

COc1cc2c(cc1OC)C(Cc1cc(Br)c(OC)c(OC)c1)=[N+](C)CC2
inactive: SN12C 87.3 µM | HOP-92 28.2 µM | NCI-H460 58.1 µM | SNB-19 55.6 µM | HCT-116 > 100 µM | IGROV-1 > 100 µM | SNB-78 92.5 µM | UACC-257 11.1 µM | SK-MEL-28 > 100 µM | OVCAR-8 27 µM | COLO 205 40.6 µM | HOP-62 43.4 µM | KM12 > 100 µM | CCRF-CEM 92.5 µM | LOX IMVI 39.3 µM

Brc1ccccc1C1SCc2nc3ccccc3n21 (centres undefined)
inactive: SN12C 12.8 µM | HOP-92 10.8 µM | NCI-H460 17.4 µM | HCT-116 8.07 µM | IGROV-1 18.6 µM | SNB-78 26.4 µM | SK-MEL-28 > 10 µM | OVCAR-8 23.6 µM | COLO 205 16.7 µM | HOP-62 19 µM | KM12 15.9 µM | CCRF-CEM 21 µM | LOX IMVI 13.2 µM

O=c1[nH]c(-c2ccccc2)nc2ccc(Cl)cc12
inactive: SN12C 41 µM | HOP-92 16.5 µM | SNB-19 79.3 µM | HCT-116 > 100 µM | SNB-78 93.8 µM | UACC-257 42.4 µM | SK-MEL-28 23.4 µM | OVCAR-8 43.8 µM | COLO 205 > 100 µM | KM12 68.5 µM

OCC(O)C(O)C(O)C(O)c1nnn[nH]1 (centres undefined)
inactive: SN12C > 100 µM | HOP-92 > 100 µM | NCI-H460 > 100 µM | HCT-116 > 100 µM | IGROV-1 > 100 µM | SNB-78 > 100 µM | OVCAR-8 > 100 µM | COLO 205 > 100 µM | HOP-62 > 100 µM | KM12 > 100 µM | CCRF-CEM > 100 µM | LOX IMVI > 100 µM

Cc1cc(C)c2c(n1)S(=O)(=O)N(CCCN1CCN(c3cccc(Cl)c3)CC1)C(C(=O)c1ccc(Br)cc1)=C2O
inactive: SN12C 11.1 µM | HOP-92 20.7 µM | Hs-578T 29.6 µM | MCF7 25.7 µM | NCI-H460 8.91 µM | SNB-19 20.9 µM | HCT-116 19.1 µM | IGROV-1 27.2 µM | UACC-257 15.3 µM | SK-MEL-28 28.2 µM | OVCAR-8 23.8 µM | COLO 205 15.4 µM | PC-3 22 µM | HOP-62 19.9 µM | KM12 24.7 µM | A498 34.9 µM | CCRF-CEM 19.9 µM | NCI/ADR-RES 18.8 µM | LOX IMVI 6.81 µM
